Data taken from PMC10584882 (Communications Biology, 2023).
pEC50, pKi: −log10 of the molar value. Values joined by “and” are separate entries in the source; they are usually repeats but may differ in a detail not shown here. Identical values can stand only once. Like-named read-outs stand apart in the source and are kept apart here.

Legend:
human CatK = target: T1, human CatK (Homo sapiens, UniProt P43235); assay: Cathepsin inhibition test, CatK; assay type: biochemical
T1 construct: made in house
T1 sequence (P43235 115-329): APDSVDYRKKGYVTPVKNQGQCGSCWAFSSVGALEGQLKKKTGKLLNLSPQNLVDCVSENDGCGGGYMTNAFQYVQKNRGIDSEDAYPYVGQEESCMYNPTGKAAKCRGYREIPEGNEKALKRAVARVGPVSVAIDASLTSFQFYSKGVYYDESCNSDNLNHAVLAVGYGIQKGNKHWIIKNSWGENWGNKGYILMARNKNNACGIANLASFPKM

SARS-CoV-2 M^pro = target: T2, SARS-CoV-2 M^pro (Severe acute respiratory syndrome coronavirus 2, UniProt P0DTD1); assay type: biochemical
T2 construct: Initially reported to target the viral main protease (M^pro); made in house
Experimental: In the enzyme inhibition assays, the initial velocities were calculated from the initial linear portions of their curves, assuming steady-state kinetics. IC50 and Ki values were calculated using GraphPad Prism software. Z-FR-AMC (CatK and CatV), Z-RR-AMC (CatB and CatL), and QS1 or Acetyl-VKLQ-AMC (M^pro) substrates were used to monitor reactions. These measurements were done in four independent duplicates or triplicates, respectively.

SARS-CoV-2 = assay: Cytopathic effect inhibition assay in LC-HK2 cells; assay type: cell-based; details: for CPE inhibition (%): LC-HK2
CatL = target: T3, CatL (Homo sapiens, UniProt P07711); assay: Cathepsin inhibition test, CatL; assay type: biochemical; details: for Residual activity (Vi/V0): Fig. S3 panel b, single replicates
T3 construct: made in house
T3 sequence (P07711 114-333): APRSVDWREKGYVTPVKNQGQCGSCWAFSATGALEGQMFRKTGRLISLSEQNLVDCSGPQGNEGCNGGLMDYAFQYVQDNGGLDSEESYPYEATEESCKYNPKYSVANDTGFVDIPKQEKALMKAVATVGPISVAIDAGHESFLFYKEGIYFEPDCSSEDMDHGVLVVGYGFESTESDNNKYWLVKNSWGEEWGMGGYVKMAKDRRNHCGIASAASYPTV

VERO-CCL81 cells = assay: Cell viability assay (CellTiter-Glo), VERO-CCL81; assay type: cell-based; details: for Cell viability (% control): VERO CCL81, 72 h, replicates of experiments 1 and 2
Experimental: VERO-CCL81 was seeded in 96-well plates at a density of 1.5×10^4 cells/well, while LC-HK2 was seeded at a density of 3×10^4 cells/well, following 24 h incubation at 37 °C and 5% CO2 atmosphere. The cell culture media was replaced by serial dilutions of the compounds and the cell viability was determined 72 h post-treatment via CellTiter-Glo® Luminescent Cell Viability Assay (Promega), following the manufacturer’s instructions. Luminescent signal was recorded using a CLARIOstar multi-mode microplate reader (BMG Labtech, Germany). Graphs were generated using GraphPad Prism software version 8.0 (La Jolla, CA, USA, www.graphpad.com). Samples deemed to be technical failures and extreme outlier were removed.

[1] = mean with standard deviation and 95% confidence interval, pH 5.5, 37 °C

CCCC[C@@H](C=O)NC(=O)[C@H](CC(C)C)NC(=O)OCc1ccccc1 [Calpeptin, reference compound]
Residual activity (Vi/V0) (human CatK; Fig. S3 panel a, inhibitor 0.058 nM, single replicates, 58 pM): 0.6214 and 0.5994 and 0.7911 and 0.9302 | Residual activity (Vi/V0) (human CatK; Fig. S3 panel a, inhibitor 0.105 nM, single replicates, 0.000105 µM): 0.4801 and 0.5677 and 0.7764 | Residual activity (Vi/V0) (human CatK; Fig. S3 panel a, inhibitor 0.189 nM, single replicates, 0.000189 µM): 0.4602 and 0.558 and 0.5219 and 0.7569 | Residual activity (Vi/V0) (human CatK; Fig. S3 panel a, inhibitor 0.340 nM, single replicates, 0.00034 µM): 0.3878 and 0.4931 and 0.523 | remaining activity at 0.00034 µM (human CatK; Fig. S3 panel a, inhibitor 0.340 nM, single replicates, read-out: Residual activity (Vi/V0)): 34.5% | Residual activity (Vi/V0) (human CatK; Fig. S3 panel a, inhibitor 0.612 nM, single replicates, 0.000612 µM): 0.4226 and 0.3636 and 0.4242 | remaining activity at 0.000612 µM (human CatK; Fig. S3 panel a, inhibitor 0.612 nM, single replicates, read-out: Residual activity (Vi/V0)): 40.6% | Residual activity (Vi/V0) (human CatK; Fig. S3 panel a, inhibitor 1.103 nM, single replicates, 0.001103 µM): 0.2715 and 0.287 and 0.3208 | remaining activity at 0.001103 µM (human CatK; Fig. S3 panel a, inhibitor 1.103 nM, single replicates, read-out: Residual activity (Vi/V0)): 28.1% | Residual activity (Vi/V0) (human CatK; Fig. S3 panel a, inhibitor 1.985 nM, single replicates, 0.001985 µM): 0.3296 and 0.262 and 0.2126 | remaining activity at 0.001985 µM (human CatK; Fig. S3 panel a, inhibitor 1.985 nM, single replicates, read-out: Residual activity (Vi/V0)): 22.7% | Residual activity (Vi/V0) (human CatK; Fig. S3 panel a, inhibitor 3.572 nM, single replicates, 0.003572 µM): 0.1196 and 0.134 and 0.13 | remaining activity at 0.003572 µM (human CatK; Fig. S3 panel a, inhibitor 3.572 nM, single replicates, read-out: Residual activity (Vi/V0)): 12.2% | Residual activity (Vi/V0) (human CatK; Fig. S3 panel a, inhibitor 6.430 nM, single replicates, 0.00643 µM): 0.07914 and 0.03985 and 0.09073 and 0.08937 | Residual activity (Vi/V0) (human CatK; Fig. S3 panel a, inhibitor 11.547 nM, single replicates, 0.011547 µM): 0.02749 and 0.03914 and 0.04269 | remaining activity at 0.011547 µM (human CatK; Fig. S3 panel a, inhibitor 11.547 nM, single replicates, read-out: Residual activity (Vi/V0)): 3.75% | Residual activity (Vi/V0) (human CatK; Fig. S3 panel a, inhibitor 20.833 nM, single replicates, 0.020833 µM): 0.006913 and 0.01907 and 0.01563 | Residual activity (Vi/V0) (human CatK; Fig. S3 panel a, inhibitor 37.500 nM, single replicates, 0.0375 µM): -0.03871 and -0.04863 and 0.01233 and 0.01242 | pKi (human CatK; [1]): 10.21 | range of M^pro inhibition (in words) (SARS-CoV-2 M^pro): micromolar range | CPE inhibition (%) (SARS-CoV-2; 0.0000000001 μM, 1e-10 µM): 6.04% | CPE inhibition (%) (SARS-CoV-2; 0.00000001 μM, 10 fM): 8.96% | CPE inhibition (%) (SARS-CoV-2; 0.0000001 μM, 100 fM): 9.11% | CPE inhibition (%) (SARS-CoV-2; 0.001 μM): 0.77% | CPE inhibition (%) (SARS-CoV-2; 0.01 μM): 24.54% | CPE inhibition (%) (SARS-CoV-2; 0.1 μM): 36.51% | CPE inhibition (%) (SARS-CoV-2; 1 μM): 50.4% | CPE inhibition (%) (SARS-CoV-2; 10 μM): 59.73% | inhibition at 1e-12 µM (SARS-CoV-2; Severe acute respiratory syndrome coronavirus 2, LC-HK2, 0.000000000001 μM (first of two lines so printed, r18), read-out: CPE inhibition (%)): 0% | inhibition at 1e-12 µM (SARS-CoV-2; Severe acute respiratory syndrome coronavirus 2, LC-HK2, 0.000000000001 μM (second line, r19), read-out: CPE inhibition (%)): 0% | inhibition at 1e-11 µM (SARS-CoV-2; Severe acute respiratory syndrome coronavirus 2, LC-HK2, 0.00000000001 μM, read-out: CPE inhibition (%)): 0% | inhibition at 1 fM (SARS-CoV-2; Severe acute respiratory syndrome coronavirus 2, LC-HK2, 0.000000001 μM, read-out: CPE inhibition (%)): 0% | inhibition at 10 pM (SARS-CoV-2; Severe acute respiratory syndrome coronavirus 2, LC-HK2, 0.00001 μM, read-out: CPE inhibition (%)): 0% | inhibition at 0.0001 µM (SARS-CoV-2; Severe acute respiratory syndrome coronavirus 2, LC-HK2, 0.0001 μM, read-out: CPE inhibition (%)): 0% | inhibition at 0.01 µM (SARS-CoV-2; Severe acute respiratory syndrome coronavirus 2, LC-HK2, 0.01 μM, read-out: CPE inhibition (%)): 19% | inhibition at 0.1 µM (SARS-CoV-2; Severe acute respiratory syndrome coronavirus 2, LC-HK2, 0.1 μM, read-out: CPE inhibition (%)): 24.4% | inhibition at 1 µM (SARS-CoV-2; Severe acute respiratory syndrome coronavirus 2, LC-HK2, 1 μM, read-out: CPE inhibition (%)): 60.8% | inhibition at 10 µM (SARS-CoV-2; Severe acute respiratory syndrome coronavirus 2, LC-HK2, 10 μM, read-out: CPE inhibition (%)): 52.8% | pEC50 (SARS-CoV-2; Severe acute respiratory syndrome coronavirus 2, LC-HK2, CellTiter-Glo, 72 h post-infection, read-out: CPE inhibition EC50): 7.22 | Residual activity (Vi/V0) (CatL; inhibitor 0.010 nM, 10 pM): 1.181 and 1.134 and 0.9277 and 1.059 and 0.8624 and 0.9348 and 0.9777 and 1.017 and 0.9832 and 0.6727 | Residual activity (Vi/V0) (CatL; inhibitor 0.018 nM, 18 pM): 1.262 and 1.015 and 0.8756 and 0.9203 and 0.9271 and 0.9762 and 0.9712 and 1.058 and 1.013 and 1.061 | Residual activity (Vi/V0) (CatL; inhibitor 0.032 nM, 32 pM): 1.274 and 1.3352 and 0.8294 and 0.9418 and 0.8372 and 0.9412 and 1.0025 and 0.9769 and 1.076 and 1.186 | Residual activity (Vi/V0) (CatL; inhibitor 0.058 nM, 58 pM): 1.241 and 1.238 and 0.7232 and 0.8381 and 0.7506 and 0.9356 and 0.9293 and 0.9501 and 1.073 and 1.146 | Residual activity (Vi/V0) (CatL; inhibitor 0.105 nM, 0.000105 µM): 1.299 and 0.9537 and 0.6352 and 0.6893 and 0.6342 and 0.9772 and 0.9319 and 0.9262 and 1.17 and 1.244 | Residual activity (Vi/V0) (CatL; inhibitor 0.189 nM, 0.000189 µM): 1.276 and 0.7939 and 0.4796 and 0.5261 and 0.4831 and 0.8363 and 0.8485 and 0.8665 and 1.045 and 0.9948 | Residual activity (Vi/V0) (CatL; inhibitor 0.340 nM, 0.00034 µM): 1.076 and 0.6362 and 0.1912 and 0.3311 and 0.2442 and 0.7013 and 0.6724 and 0.6039 and 0.9136 and 0.9341 | Residual activity (Vi/V0) (CatL; inhibitor 0.612 nM, 0.000612 µM): 0.7699 and 0.3953 and 0.2966 and 0.328 and 0.2718 and 0.8608 and 0.8769 and 0.888 and 0.6121 and 0.7229 | Residual activity (Vi/V0) (CatL; inhibitor 1.103 nM, 0.001103 µM): 0.6194 and 0.292 and 0.1922 and 0.2117 and 0.1777 and 0.7372 and 0.725 and 0.6702 and 0.5009 and 0.6045 | Residual activity (Vi/V0) (CatL; inhibitor 1.985 nM, 0.001985 µM): 0.4333 and 0.2071 and 0.1127 and 0.1262 and 0.1102 and 0.4283 and 0.4219 and 0.4519 and 0.4308 and 0.4332 | pKi (CatL; [1]): 9.88 | Cell viability (% control) (VERO-CCL81 cells; 0.0781 μM): 94.74 % control and 101.25 % control and 101.91 % control | Cell viability (% control) (VERO-CCL81 cells; 0.1563 μM): 97.56 % control and 99.32 % control and 100.01 % control | Cell viability (% control) (VERO-CCL81 cells; 0.3125 μM): 82.19 % control and 89.43 % control and 92.71 % control and 95.68 % control and 100.03 % control and 106.22 % control | Cell viability (% control) (VERO-CCL81 cells; 0.625 μM): 82.29 % control and 95.76 % control and 97.52 % control and 95.98 % control and 103.97 % control and 109.96 % control | Cell viability (% control) (VERO-CCL81 cells; 1.25 μM): 89.05 % control and 94.79 % control and 98.25 % control and 97.91 % control and 104.77 % control and 107.22 % control | Cell viability (% control) (VERO-CCL81 cells; 2.5 μM): 86.26 % control and 94.8 % control and 103.32 % control and 94.24 % control and 103.27 % control and 108.67 % control | Cell viability (% control) (VERO-CCL81 cells; 5 μM): 90.56 % control and 101.72 % control and 106.83 % control and 95.97 % control and 102.4 % control and 105.71 % control | Cell viability (% control) (VERO-CCL81 cells; 10 μM): 85.37 % control and 97.81 % control and 103.34 % control and 84.83 % control and 98.42 % control and 92.92 % control | cytotoxicity (in words) (VERO-CCL81 cells; VERO-CCL81, 72 h): no cytotoxicity up to low micromolar concentrations
